# Source: ChEMBL document CHEMBL1201862, “PubChem BioAssay data set” (2004)
# Activity calls are given as the source filed them.
# Tests used:
# [1] = Counterscreen for activators of the function of SWI/SNF related, matrix associated, actin dependent regulator of chromatin, subfamily a, member 2 (SMARCA2, BRM): Luminescence-based cell-based high throughput dose response assay to identify non-selective compounds using the VP16 reporter assay.; assay type: functional
# [2] = biological target: SWI/SNF-related matrix-associated actin-dependent regulator of chromatin subfamily A member 2 (Homo sapiens, UniProt P51531); assay: Luminescence-based cell-based high throughput dose response assay to identify activators of the function of SWI/SNF related, matrix associated, actin dependent regulator of chromatin, subfamily a, member 2 (SMARCA2, BRM).; assay type: functional
# Sequence of SWI/SNF-related matrix-associated actin-dependent regulator of chromatin subfamily A member 2 (P51531 whole entry): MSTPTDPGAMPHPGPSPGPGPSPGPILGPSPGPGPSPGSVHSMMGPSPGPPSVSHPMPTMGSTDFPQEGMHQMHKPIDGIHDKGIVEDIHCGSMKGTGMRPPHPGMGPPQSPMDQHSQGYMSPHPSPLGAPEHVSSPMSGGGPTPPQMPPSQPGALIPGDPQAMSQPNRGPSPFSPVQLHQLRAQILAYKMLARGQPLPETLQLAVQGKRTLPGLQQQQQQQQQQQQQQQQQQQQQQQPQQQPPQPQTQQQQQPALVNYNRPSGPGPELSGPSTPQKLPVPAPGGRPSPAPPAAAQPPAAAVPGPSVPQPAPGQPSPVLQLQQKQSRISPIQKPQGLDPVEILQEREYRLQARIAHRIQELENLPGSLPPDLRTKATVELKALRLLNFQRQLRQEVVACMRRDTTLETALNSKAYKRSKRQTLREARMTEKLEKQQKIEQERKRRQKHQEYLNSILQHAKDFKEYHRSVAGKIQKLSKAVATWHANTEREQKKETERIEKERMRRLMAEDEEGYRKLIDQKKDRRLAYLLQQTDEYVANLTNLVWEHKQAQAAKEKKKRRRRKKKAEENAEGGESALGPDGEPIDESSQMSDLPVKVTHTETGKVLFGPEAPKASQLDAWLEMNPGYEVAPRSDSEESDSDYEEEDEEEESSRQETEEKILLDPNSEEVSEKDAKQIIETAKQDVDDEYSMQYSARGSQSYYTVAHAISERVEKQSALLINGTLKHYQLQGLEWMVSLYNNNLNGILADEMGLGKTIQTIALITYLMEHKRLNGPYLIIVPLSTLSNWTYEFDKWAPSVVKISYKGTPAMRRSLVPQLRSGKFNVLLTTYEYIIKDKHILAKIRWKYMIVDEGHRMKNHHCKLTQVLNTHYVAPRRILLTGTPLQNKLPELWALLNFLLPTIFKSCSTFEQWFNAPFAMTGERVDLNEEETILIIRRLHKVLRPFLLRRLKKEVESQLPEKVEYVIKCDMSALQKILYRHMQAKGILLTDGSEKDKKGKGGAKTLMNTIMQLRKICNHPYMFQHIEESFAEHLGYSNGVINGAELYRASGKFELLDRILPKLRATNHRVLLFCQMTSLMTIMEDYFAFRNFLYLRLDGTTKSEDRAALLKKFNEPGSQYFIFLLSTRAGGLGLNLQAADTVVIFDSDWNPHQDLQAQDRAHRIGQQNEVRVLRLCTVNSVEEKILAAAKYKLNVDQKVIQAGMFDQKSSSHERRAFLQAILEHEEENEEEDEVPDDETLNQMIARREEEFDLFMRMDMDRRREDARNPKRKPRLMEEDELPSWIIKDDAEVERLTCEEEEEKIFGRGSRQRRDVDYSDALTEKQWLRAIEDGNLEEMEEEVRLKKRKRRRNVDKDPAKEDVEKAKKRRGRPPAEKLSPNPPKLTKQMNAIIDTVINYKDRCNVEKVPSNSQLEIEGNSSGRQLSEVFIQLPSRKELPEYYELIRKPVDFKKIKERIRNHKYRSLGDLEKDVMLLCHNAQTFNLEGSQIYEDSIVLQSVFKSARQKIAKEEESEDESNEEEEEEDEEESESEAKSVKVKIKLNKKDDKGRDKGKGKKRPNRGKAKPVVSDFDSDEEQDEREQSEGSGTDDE
# [3] = non-specific 3'UTR reporter inhibition in Clone20-Shn3RL – cell-based, Renilla luciferase, cherry-picked, counter-screen for Shn3 inhibitor project, dose response (AID 624133); assay type: functional
# [4] = loss of viability in HepG2 cells – cell-based, CellTiter-Glo, cherry-picked, cytotoxicity control for Shn3 inhibitor project, dose response (AID 624134); assay type: functional
# HEK293 [5] = assay: EBV LMP1 TES2 canonical NF-kB signalling blockers – cell-based, HEK293, luciferase, cherry-pick, dose response (AID 588343); assay type: functional; details: Homo sapiens
# [6] = reduction of Shn3 3'UTR-driven luciferase in osteoblasts – cell-based, Clone20 osteoblasts, firefly luciferase, cherry-picked, dose response (AID 624132); assay type: functional;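 further: firefly luciferase luminescence from reporter carrying the Shn3 3'UTR in osteoblasts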
# HeLa = assay: ATP-based viability loss in HeLa cells – cell-based, CellTiter-Glo luminescence, cherry-pick samples, cytotoxicity control for MITF activator project, dose response (AID 540259); assay type: functional; details: Homo sapiens
# [7] = HIV-1 AD8 envelope cell-cell fusion blockers – cherry-pick, dose response (AID 652062); assay type: functional, cell-based;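 further: luciferase signal from cell-cell fusion driven by HIV-1 clade B AD8 Env; potency is for inhibitors of fusion seen as a drop in luminescence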
# [8] = blockers of HIV-1 envelope-mediated cell-cell fusion – cherry-pick, dose response (AID 652057); assay type: functional, cell-based
# [9] = off-target signal loss in HeLa-CEM21 co-culture – HeLa F-luc CTL cells, cherry-picked, counter-screen for HIV-1 Env fusion inhibitor project, dose response (AID 652040); assay type: functional, cell-based;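 further: potency for signal decrease marking cytotoxic or nonspecific inhibition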
# [10] = blockers of HIV-1 ZM109 envelope-driven cell-cell fusion – HeLa effector, CEM target cells, luciferase, cherry-pick, dose response (AID 652058); assay type: functional, cell-based;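 further: luciferase signal from HIV-1 Env mediated cell-cell fusion of effector and target cells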
# [11] = biological target: T1, Corticotropin-releasing factor receptor 2/Corticotropin-releasing factor-binding protein (Homo sapiens, UniProt P24387+Q13324); assay: activators of CRF receptor 2 with binding protein – uHTS hits, confirmation (AID 602473); assay type: functional; details: read-out: EC50_Mean
# T1 sequence (Q13324 whole entry): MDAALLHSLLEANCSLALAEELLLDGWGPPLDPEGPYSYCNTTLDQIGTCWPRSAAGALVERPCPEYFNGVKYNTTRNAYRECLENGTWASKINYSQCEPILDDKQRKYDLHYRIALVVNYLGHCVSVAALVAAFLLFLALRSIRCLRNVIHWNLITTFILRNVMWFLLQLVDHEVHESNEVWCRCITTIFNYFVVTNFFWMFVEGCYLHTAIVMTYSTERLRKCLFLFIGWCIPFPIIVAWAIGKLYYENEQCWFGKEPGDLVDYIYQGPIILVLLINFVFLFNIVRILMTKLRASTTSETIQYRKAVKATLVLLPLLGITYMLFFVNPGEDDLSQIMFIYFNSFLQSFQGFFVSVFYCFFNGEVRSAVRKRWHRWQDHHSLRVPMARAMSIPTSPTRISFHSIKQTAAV
# T1 sequence (P24387 whole entry): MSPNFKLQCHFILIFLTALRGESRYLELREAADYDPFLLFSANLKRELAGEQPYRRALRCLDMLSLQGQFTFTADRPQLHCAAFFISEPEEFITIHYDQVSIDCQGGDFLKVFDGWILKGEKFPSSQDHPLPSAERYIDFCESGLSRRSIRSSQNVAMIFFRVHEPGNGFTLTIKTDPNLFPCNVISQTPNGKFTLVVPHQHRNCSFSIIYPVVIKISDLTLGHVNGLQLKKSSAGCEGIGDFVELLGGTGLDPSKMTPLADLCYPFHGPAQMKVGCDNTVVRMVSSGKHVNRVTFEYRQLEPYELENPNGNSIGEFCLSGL
# [12] = NIH3T3 cell viability loss – ATP luminescence, mouse fibroblasts, counter-screen, dose response (AID 2010); assay type: functional, cell-based;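 further: cells exposed to compound for about 90 hours before reading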
# [13] = Trypanosoma cruzi growth suppression in host cells – NIH3T3 host cells, beta-gal luminescence, confirmation (AID 2044); assay type: functional, cell-based;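 further: intracellular parasites grown in NIH/3T3 mouse fibroblasts as host cells; luminescent beta-galactosidase reporter signal from transgenic T. cruzi replicating inside host cells; inhibitors lower the luminescence signal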
# HEK293 [14] = assay: NOD2 signaling inhibitors in MDP-stimulated cells, cell-based, uHTS, luminescence (AID 2001); assay type: functional; details: Homo sapiens
# [15] = biological target: T2, RNA-binding protein pos-1 (Caenorhabditis elegans, UniProt G5EF15); assay: disruptors of C. elegans POS-1 RNA interaction – biochemical, fluorescence polarization, dose response (AID 1964);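 further: purified POS-1 fused to maltose binding protein made in E. coli; potency of compounds blocking POS-1 binding to fluorescent RNA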
# T2 sequence (G5EF15 whole entry): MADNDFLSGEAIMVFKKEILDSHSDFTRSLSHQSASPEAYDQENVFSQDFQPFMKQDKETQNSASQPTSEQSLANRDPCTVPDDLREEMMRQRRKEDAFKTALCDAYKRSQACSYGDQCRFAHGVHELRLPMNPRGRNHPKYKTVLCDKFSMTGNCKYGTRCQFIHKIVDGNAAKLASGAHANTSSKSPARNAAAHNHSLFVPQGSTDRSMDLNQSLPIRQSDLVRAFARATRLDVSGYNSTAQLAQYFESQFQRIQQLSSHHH
# [16] = biological target: T3, Zinc finger protein mex-5 (Caenorhabditis elegans, UniProt Q9XUB2); assay: potency of MEX-5 RNA-binding blockers – biochemical, C. elegans, fluorescence polarization, dose response (AID 1960)
# T3 sequence (Q9XUB2 whole entry): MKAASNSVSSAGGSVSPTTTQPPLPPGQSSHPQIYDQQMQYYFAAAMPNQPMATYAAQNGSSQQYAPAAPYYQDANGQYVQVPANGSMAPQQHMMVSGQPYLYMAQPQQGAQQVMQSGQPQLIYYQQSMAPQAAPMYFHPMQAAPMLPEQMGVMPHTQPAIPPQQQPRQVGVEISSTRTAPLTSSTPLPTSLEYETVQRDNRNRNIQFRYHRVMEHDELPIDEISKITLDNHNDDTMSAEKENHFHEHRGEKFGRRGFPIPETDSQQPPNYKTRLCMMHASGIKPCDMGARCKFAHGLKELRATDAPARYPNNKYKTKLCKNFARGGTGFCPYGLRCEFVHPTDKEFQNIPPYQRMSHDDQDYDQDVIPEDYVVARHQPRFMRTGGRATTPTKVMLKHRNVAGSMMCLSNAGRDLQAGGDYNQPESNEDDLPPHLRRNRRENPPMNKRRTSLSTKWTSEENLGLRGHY
# HEK293 [17] = assay: cells; assay type: functional, cell-based; details: Homo sapiens
# HEK293 [18] = assay: inhibition of NOD1-driven NF-kB reporter – cell-based, luminescence, uHTS, primary screen (AID 1578); assay type: functional; details: Homo sapiens
# HEK293 [19] = assay: cells; assay type: functional, cell-based; details: Homo sapiens; remark: listed apart in the source
# Cytochrome P450 2C9 = Cytochrome P450 2C9 (Homo sapiens, UniProt P11712)
# Sequence of Cytochrome P450 2C9 (P11712 whole entry): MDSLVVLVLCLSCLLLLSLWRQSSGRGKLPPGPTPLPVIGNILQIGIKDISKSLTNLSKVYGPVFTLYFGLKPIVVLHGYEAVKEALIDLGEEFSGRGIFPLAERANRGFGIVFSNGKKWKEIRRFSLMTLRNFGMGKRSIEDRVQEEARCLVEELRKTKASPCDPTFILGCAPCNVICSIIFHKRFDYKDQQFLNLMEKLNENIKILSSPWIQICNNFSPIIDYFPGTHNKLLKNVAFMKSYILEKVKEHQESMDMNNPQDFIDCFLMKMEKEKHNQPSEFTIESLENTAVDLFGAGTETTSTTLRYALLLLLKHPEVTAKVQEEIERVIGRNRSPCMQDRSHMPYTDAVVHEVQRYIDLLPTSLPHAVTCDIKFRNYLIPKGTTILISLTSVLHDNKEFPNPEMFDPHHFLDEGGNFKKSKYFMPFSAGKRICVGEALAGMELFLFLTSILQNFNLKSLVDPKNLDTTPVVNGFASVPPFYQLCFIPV
# Cytochrome P450 3A4 = Cytochrome P450 3A4 (Homo sapiens, UniProt P08684);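 further: CYP3A4 tested as one member of a cytochrome P450 panel screen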
# Sequence of Cytochrome P450 3A4 (P08684 whole entry): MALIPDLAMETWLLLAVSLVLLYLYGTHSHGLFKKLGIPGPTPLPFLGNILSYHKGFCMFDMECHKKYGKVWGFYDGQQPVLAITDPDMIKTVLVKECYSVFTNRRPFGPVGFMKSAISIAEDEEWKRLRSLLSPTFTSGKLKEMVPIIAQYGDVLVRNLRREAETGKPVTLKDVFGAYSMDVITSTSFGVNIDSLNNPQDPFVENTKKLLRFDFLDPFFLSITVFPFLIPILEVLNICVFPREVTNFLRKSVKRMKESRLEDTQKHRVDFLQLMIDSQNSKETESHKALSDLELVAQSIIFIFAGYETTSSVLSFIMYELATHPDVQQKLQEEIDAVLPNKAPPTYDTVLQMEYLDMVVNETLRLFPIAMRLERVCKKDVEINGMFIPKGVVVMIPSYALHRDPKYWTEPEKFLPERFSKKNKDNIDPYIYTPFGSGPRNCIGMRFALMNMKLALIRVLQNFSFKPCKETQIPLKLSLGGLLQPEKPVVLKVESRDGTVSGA
# Cytochrome P450 1A2 = biological target: T4, Cytochrome P450 1A2 (Homo sapiens, UniProt P05177);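 further: PubChem cytochrome P450 panel assay, CYP1A2 panel member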
# T4 sequence (P05177 whole entry): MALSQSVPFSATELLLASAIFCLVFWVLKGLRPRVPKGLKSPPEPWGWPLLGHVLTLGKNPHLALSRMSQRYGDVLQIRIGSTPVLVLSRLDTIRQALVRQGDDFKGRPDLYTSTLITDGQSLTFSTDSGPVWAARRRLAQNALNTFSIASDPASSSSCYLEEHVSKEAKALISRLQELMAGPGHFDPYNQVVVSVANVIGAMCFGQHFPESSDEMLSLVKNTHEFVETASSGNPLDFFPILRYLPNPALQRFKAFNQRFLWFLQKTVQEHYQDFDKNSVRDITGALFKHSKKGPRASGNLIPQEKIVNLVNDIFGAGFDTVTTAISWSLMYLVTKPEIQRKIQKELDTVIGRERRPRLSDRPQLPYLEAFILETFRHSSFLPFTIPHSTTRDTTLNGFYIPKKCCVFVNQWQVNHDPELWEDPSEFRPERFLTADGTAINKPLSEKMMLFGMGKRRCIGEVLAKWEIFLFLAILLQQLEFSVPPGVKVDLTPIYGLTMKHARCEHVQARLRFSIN
# Coagulation factor XII = biological target: T5, Coagulation factor XII (Homo sapiens, UniProt P00748); assay type: functional;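 further: activated factor XIIa alpha cleaving a fluorogenic AMC peptide substrate; inhibitor potency from loss of enzyme activity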
# T5 sequence (P00748 whole entry): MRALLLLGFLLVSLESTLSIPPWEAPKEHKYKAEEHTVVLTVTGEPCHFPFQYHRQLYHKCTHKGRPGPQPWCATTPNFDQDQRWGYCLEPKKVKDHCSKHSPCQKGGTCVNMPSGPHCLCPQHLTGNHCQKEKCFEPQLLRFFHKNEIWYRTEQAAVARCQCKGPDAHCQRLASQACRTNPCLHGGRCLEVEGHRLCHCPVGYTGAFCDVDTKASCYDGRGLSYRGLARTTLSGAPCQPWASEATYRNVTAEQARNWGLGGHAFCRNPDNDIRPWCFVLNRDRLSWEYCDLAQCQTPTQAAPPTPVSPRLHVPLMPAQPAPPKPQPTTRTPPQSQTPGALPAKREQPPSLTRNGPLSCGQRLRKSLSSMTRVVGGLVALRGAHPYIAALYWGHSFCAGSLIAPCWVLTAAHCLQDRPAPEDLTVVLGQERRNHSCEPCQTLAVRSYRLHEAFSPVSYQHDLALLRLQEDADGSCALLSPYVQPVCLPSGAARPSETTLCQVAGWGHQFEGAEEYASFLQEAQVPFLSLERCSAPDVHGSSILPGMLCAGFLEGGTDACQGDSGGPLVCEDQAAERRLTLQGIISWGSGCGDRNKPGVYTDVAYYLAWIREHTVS
# Cytochrome P450 2D6 = Cytochrome P450 2D6 (Homo sapiens, UniProt P10635);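 further: CYP2D6 member of a cytochrome P450 panel assay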
# Sequence of Cytochrome P450 2D6 (P10635 whole entry): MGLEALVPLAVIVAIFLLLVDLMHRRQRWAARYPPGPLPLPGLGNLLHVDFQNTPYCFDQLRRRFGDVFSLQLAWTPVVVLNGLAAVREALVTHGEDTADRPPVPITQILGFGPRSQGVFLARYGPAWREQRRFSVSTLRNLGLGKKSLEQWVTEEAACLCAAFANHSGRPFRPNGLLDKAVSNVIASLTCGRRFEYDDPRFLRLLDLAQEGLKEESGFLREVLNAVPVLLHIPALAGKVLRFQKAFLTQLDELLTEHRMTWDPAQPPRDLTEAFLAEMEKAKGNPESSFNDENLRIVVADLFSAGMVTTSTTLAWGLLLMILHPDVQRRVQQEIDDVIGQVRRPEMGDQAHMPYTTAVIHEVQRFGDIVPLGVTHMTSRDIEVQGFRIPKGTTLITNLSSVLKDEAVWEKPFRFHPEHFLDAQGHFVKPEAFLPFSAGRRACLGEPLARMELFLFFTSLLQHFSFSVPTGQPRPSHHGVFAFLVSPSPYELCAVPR
# [20] = Luminescence Cell-Based Dose Response HTS to Identify Activators of Luciferase Translation or Activity in H4 […] Cells. [Related pubchem assays: 1829 (Project Summary), 1814 (Primary HTS)]; assay type: functional
# H4 = assay: Luminescence Cell-Based Dose Response HTS to Identify Activators of 5'UTR Stem-Loop Driven Prion Protein mRNA Translation in H4 Neuroglioblastoma Cells. [Related pubchem assays: 1829 (Project Summary), 1814 (Primary HTS)]; assay type: functional; details: Homo sapiens
# Streptococcus = assay: GAS UMAA2166 growth inhibition – luminescence, BacTiterGlo, counter-screen for streptokinase expression inhibitor project, dose response (AID 1915); assay type: functional, organism-based;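 further: potency for reduction of bacterial viability or growth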
# [21] = system: Streptococcus sp. 'group A'; assay: Streptococcus pyogenes SK(-)GAS viability under kanamycin – luminescence, BacTiterGlo, confirmation, counter-screen for streptokinase expression inhibitor project, dose response (AID 1900); assay type: functional, organism-based
# cells = assay type: functional
smiles,measurement,setting,value
O=C(OCc1cc(=O)oc2cc(O)ccc12)c1cc(S(=O)(=O)N2CCOCC2)ccc1F,EC50,[1],> 91.2 µM (inactive)
same,EC50,[2],> 91.2 µM (inactive)
CCCC(=O)NC(c1cccc([N+](=O)[O-])c1)c1ccc2cccnc2c1O (stereo not given),AC50,[3],3.55 µM (active)
same,AC50,[4],4.25 µM (active)
same,AC50,HEK293 [5],4.48 µM (active)
same,AC50,[6],1.75 µM (active)
Nc1ccc2oc(=O)c3ccccc3c2c1,AC50,HeLa,178 µM (active)
CC1=CC(C)(C)N(C(=O)c2ccccc2)c2ccc(C)cc21,AC50,[7],42.2 µM (active)
same,AC50,[8],42.6 µM (active)
same,AC50,[9],29.7 µM (active)
same,AC50,[10],7.28 µM (active)
same,EC50,[11],6.89 µM (active)
Cc1ccc(S(=O)(=O)N2c3ccccc3-c3c(ssc3=S)C2(C)C)cc1,AC50,HEK293 [5],43.5 µM (active)
same,EC50,[12],> 60 µM (not active)
same,EC50,[13],2.65 µM (active)
COc1ccc(/C=C/C(=O)c2c(C)cc(C)nc2O)c2ccccc12,IC50,HEK293 [14],12.4 µM (inactive)
same,EC50,[15],> 300 µM (not active)
same,EC50,[16],> 300 µM (not active)
same,IC50,HEK293 [17],> 20 µM (inactive)
same,EC50,HEK293 [18],4.53 µM (active)
same,IC50,HEK293 [19],10.1 µM (active)
C=CCn1c(SCc2csc(C)n2)nc2sc3c(c2c1=O)CCCC3,AC50,HEK293 [5],35.8 µM (active)
O=C(c1ccccc1)C1CN(c2ccccc2)CC1c1ccc(Cl)cc1 (stereo not given),AC50,Cytochrome P450 2C9,5.01 µM (inconclusive)
same,AC50,Cytochrome P450 3A4,8.91 µM (inconclusive)
same,AC50,Cytochrome P450 1A2,3.55 µM (inconclusive)
same,IC50,Coagulation factor XII,> 50 µM (inactive)
same,AC50,Cytochrome P450 2D6,3.16 µM (inconclusive)
O=C(NNC(S)=Nc1ccc(F)cc1F)c1ccco1,EC50,[1],> 91.2 µM (inactive)
same,EC50,[2],> 91.2 µM (inactive)
O=C(NC1CCCC1)c1cc(-c2ccc(Cl)cc2Cl)on1,AC50,HeLa,> 350 µM (inactive)
CC(C)[C@H](N)C(=O)N[C@H]1CCC2C3CC=C4C[C@@H](O)CC[C@]4(C)C3CC[C@@]21C (stereo not given in full),EC50,[1],> 91.2 µM (inactive)
same,EC50,[2],> 91.2 µM (inactive)
CCS(=O)(=O)c1ccc2oc(Nc3ccccc3C)nc2c1,AC50,HeLa,78.7 µM (active)
COc1cccc(C(=O)Nc2nnc(-c3ccccc3)s2)c1,AC50,HeLa,44.4 µM (active)
Cc1cccc(OC(=O)c2sc3ncn(C)c(=O)c3c2C)c1,EC50,[20],> 120 µM (not active)
same,EC50,H4,19.8 µM (active)
same,EC50,Streptococcus,7.36 µM (active)
same,EC50,[21],2.85 µM (active)
same,AC50,HeLa,> 350 µM (inactive)
same,IC50,cells,2.87 µM (active)
COC(=O)c1ccc2c(O)nc(CCl)nc2c1,IC50,HEK293 [14],> 20 µM (inactive)
same,IC50,HEK293 [17],> 20 µM (inactive)
same,EC50,HEK293 [18],> 20 µM (inactive)
same,IC50,HEK293 [19],> 20 µM (inactive)
CC(=NNC(=S)Nc1ccccc1)c1ccccn1,AC50,HEK293 [5],0.0995 µM (active)
